In patent publication EP1674110A1, “Inhibition of bradykinin release” (priority 1999, dated 2000):

Legend:
[1] = biological target: HBP (heparin-binding protein, CAP37); conditions: lipid A component of LPS and endotoxin binding to HBP; read-out: Kass (converted); cited from earlier work
[2] = tested on: endothelial cells (HUVEC or BAEC); test: Transendothelial electrical resistance (TEER) after CD18 cross-linking of PMNs; format: cell-based; conditions: endothelial cells pre-treated with BAPTA AM; concentration not given
Description: Human umbilical vein endothelial cells (HUVEC) and bovine aorta endothelial cells (BAEC) are isolated and cultured as previously described (Gautam et al. 1998, Brit. J. Pharm. 125:1109-1114). HUVEC or BAEC in the first to fifth passages are detached by brief (2 min) trypsin-EDTA treatment (0.25% trypsin/0.01 % EDTA) and replated onto either 0.2 µm pore size Anopore inorganic membrane or 3.0 µm pore size polycarbonate filters (Tissue Culture inserts, 10 mm; NUNC, Roskilde, Denmark). In order to promote cellular differentiation and enhance attachment of endothelial cells (ECs), the filters are pretreated with 50 µl Biomatrix I (167 µg/ml) and air-dried. […] The EC are grown to confluent monolayers, as assessed by daily microscopic observation and measurement of the electrical resistance across the monolayer (Gautam et al. 1998, Brit. J. Pharm. 125:1109-1114).
Two different approaches are used for assessment of stimulation-induced changes in EC permeability. […] Electrical resistance across the EC monolayer is measured at 37°C with electrodes in each compartment exactly positioned in relation to each other and to the monolayer. The electrical resistance of individual EC monolayers is obtained by subtracting the resistance of the corresponding naked filter coated with Biomatrix as measured prior to seeding of the endothelial cells. […]

BAEC monolayers = test: EC intracellular free Ca2+ (fluo-3) after CD18 cross-linking of PMNs; format: cell-based, bovine; conditions: endothelial cells pre-treated with BAPTA AM; concentration not given
Description: The Ca^2+ sensitive fluorescent probe fluo-3/AM (Molecular Probes Europe BV, Leiden, The Netherlands) is used for determination of changes in EC intracellular free Ca^2+. Confluent BAEC monolayers on filters are incubated for 30 min at 37°C with fluo-3/AM (3µM in HBSS containing 2% FCS and 10 mM HEPES) added to both the apical and basolateral surface. The monolayers are washed three times and incubated with fresh HBSS in the dark for 20 min at room temperature to allow complete hydrolysis of the dye ester. Anti-CD18 or anti-L-selectin mAb treated PMNs are added to ECs and receptor cross-linking is induced with secondary mAb as described above. In separate experiments, PMN secretion containing medium (see above) is used to stimulate ECs in the absence of PMNs. Changes in EC [Ca^2+]i in response to these stimuli are measured through continuous registration of fluorescence intensity with a laser-scanning confocal imaging system (Insight Plus; Meridian Instruments Inc., Okemon, Michigan).
Monolayers of endothelial cells are labelled with the Ca^2+-sensitive fluorophore fluo-3, and stimulus-induced changes in EC [Ca^2+]i monitored by confocal laser scanning microscopy. Adding anti-CD18 treated PMNs to the EC monolayer caused no change in EC [Ca^2+]. […]

Compound	Kd [1] [nM]	change in TEER in response to CD18 cross-linking [2]	rise in EC free intracellular Ca^2+ in response to CD18 cross-linking (BAEC monolayers)
lipid A	1.25		
CC(=O)OCOC(=O)CN(CC(=O)OCOC(C)=O)c1ccccc1OCCOc1ccccc1N(CC(=O)OCOC(C)=O)CC(=O)OCOC(C)=O [BAPTA AM]		completely inhibited	completely inhibited
